What was measured:
Carboplatin = compound: C1CC(C1)(C(=O)[O-])C(=O)[O-].N.N.[Pt+2] [Carboplatin]; conditions: max 10 µM
Outline: (§1)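 Cancer cell lines in 1536-well plates (7.5 μl DMEM/F12 or RPMI, 10% FBS) were held 24 hours at 37°C and 5% CO2 and then dosed for 72 hours at a final DMSO of typically 0.2%. Viability was taken from CellTiter-Glo 2.0 luminescence, scaled between blank-well and DMSO-well means. Curves were fitted as two-parameter logistic models with a non-linear mixed effects model, from which the single-agent IC50 was taken.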

AZD5363 = compound: C1CN(CCC1(C(=O)N[C@@H](CCO)C2=CC=C(C=C2)Cl)N)C3=NC=NC4=C3C=CN4 [AZD5363]; conditions: max 10 µM
Outline: as §1

AZD1775 = compound: C=CCn1c(=O)c2cnc(Nc3ccc(N4CCN(C)CC4)cc3)nc2n1-c1cccc(C(C)(C)O)n1 [AZD1775]
Outline: as §1

Trametinib = compound: CC(=O)Nc1cccc(-n2c(=O)n(C3CC3)c(=O)c3c(Nc4ccc(I)cc4F)n(C)c(=O)c(C)c32)c1 [Trametinib]; conditions: max 1 µM
Outline: as §1

Paclitaxel = compound: CC(=O)O[C@H]1C(=O)[C@@]2(C)[C@H]([C@H](OC(=O)c3ccccc3)[C@]3(O)C[C@H](OC(=O)[C@H](O)[C@@H](NC(=O)c4ccccc4)c4ccccc4)C(C)=C1C3(C)C)[C@]1(OC(C)=O)CO[C@@H]1C[C@@H]2O [Paclitaxel]; conditions: max 3 µM
Outline: as §1

Palbociclib = compound: CC(=O)c1c(C)c2cnc(Nc3ccc(N4CCNCC4)cn3)nc2n(C2CCCC2)c1=O [Palbociclib]; conditions: max 10 µM
Outline: as §1

AZD1390 = compound: CC(C)n1c(=O)n(C)c2cnc3cc(F)c(-c4ccc(OCCCN5CCCCC5)nc4)cc3c21 [AZD1390]; conditions: max 0.3 µM
Outline: as §1

Venetoclax = compound: CC1(C)CCC(CN2CCN(c3ccc(C(=O)NS(=O)(=O)c4ccc(NCC5CCOCC5)c([N+](=O)[O-])c4)c(Oc4cnc5[nH]ccc5c4)c3)CC2)=C(c2ccc(Cl)cc2)C1 [Venetoclax]; conditions: max 1 µM
Outline: as §1

Dasatinib = compound: CC1=C(C(=CC=C1)Cl)NC(=O)C2=CN=C(S2)NC3=CC(=NC(=N3)C)N4CCN(CC4)CCO [Dasatinib]; conditions: max 2 µM
Outline: as §1

SG3199 = compound: CC1=CN2[C@@H](C1)C=NC3=CC(=C(C=C3C2=O)OC)OCCCCCOC4=C(C=C5C(=C4)N=C[C@@H]6CC(=CN6C5=O)C)OC [SG3199]; conditions: max 0.001 µM
Outline: as §1

AZD2811 = compound: CCN(CCO)CCCOc1ccc2c(Nc3cc(CC(=O)Nc4cccc(F)c4)[nH]n3)ncnc2c1 [AZD2811]; conditions: max 1 µM
Outline: as §1

SN-38 = compound: CCc1c2c(nc3ccc(O)cc13)-c1cc3c(c(=O)n1C2)COC(=O)[C@]3(O)CC [SN-38]; conditions: max 0.3 µM
Outline: as §1

AZD0156 = compound: CN(C)CCCOc1ccc(-c2ccc3ncc4c(c3c2)n(C2CCOCC2)c(=O)n4C)cn1 [AZD0156]
Outline: as §1

AZD4320 = compound: CN(CC[C@H](CSC1=CC=CC=C1)NC2=C(C=C(C=C2)S(=O)(=O)NC(=O)C3=CC=C(C=C3)N4CCC(CC4)[C@H](C5=CC=CC=C5C6=CC=C(C=C6)Cl)O)S(=O)(=O)C(F)(F)F)CCO [AZD4320]; conditions: max 1 µM
Outline: as §1

Alisertib = compound: COc1cc(Nc2ncc3c(n2)-c2ccc(Cl)cc2C(c2c(F)cccc2OC)=NC3)ccc1C(=O)O [Alisertib]; conditions: max 10 µM
Outline: as §1

Etoposide = compound: COc1cc([C@@H]2c3cc4c(cc3[C@@H](O[C@@H]3O[C@@H]5CO[C@@H](C)O[C@H]5[C@H](O)[C@H]3O)[C@H]3COC(=O)[C@H]23)OCO4)cc(OC)c1O [Etoposide]; conditions: max 10 µM
Outline: as §1

Gefitinib = compound: COc1cc2ncnc(Nc3ccc(F)c(Cl)c3)c2cc1OCCCN1CCOCC1 [Gefitinib]; conditions: max 10 µM
Outline: as §1

Prexasertib = compound: COc1cccc(OCCCN)c1-c1cc(Nc2cnc(C#N)cn2)n[nH]1 [Prexasertib]; conditions: max 1 µM
Outline: as §1

Doxorubicin = compound: COc1cccc2c1C(=O)c1c(O)c3c(c(O)c1C2=O)C[C@@](O)(C(=O)CO)C[C@@H]3O[C@H]1C[C@H](N)[C@H](O)[C@H](C)O1 [Doxorubicin]; conditions: max 1 µM
Outline: as §1

AZD5153 = compound: COc1nnc2ccc(N3CCC(c4ccc(OCCN5CCN(C)C(=O)[C@H]5C)cc4)CC3)nn12 [AZD5153]; conditions: max 1 µM
Outline: as §1

Lapatinib = compound: CS(=O)(=O)CCNCc1ccc(-c2ccc3ncnc(Nc4ccc(OCc5cccc(F)c5)c(Cl)c4)c3c2)o1 [Lapatinib]; conditions: max 10 µM
Outline: as §1

AZD8186 = compound: C[C@@H](Nc1cc(F)cc(F)c1)c1cc(C(=O)N(C)C)cc2c(=O)cc(N3CCOCC3)oc12 [AZD8186]; conditions: max 10 µM
Outline: as §1

Crizotinib = compound: C[C@@H](Oc1cc(-c2cnn(C3CCNCC3)c2)cnc1N)c1c(Cl)ccc(F)c1Cl [Crizotinib]; conditions: max 10 µM
Outline: as §1

Savolitinib = compound: C[C@@H](c1ccc2nccn2c1)n1nnc2ncc(-c3cnn(C)c3)nc21 [Savolitinib]; conditions: max 1 µM
Outline: as §1

AZD6738 = compound: C[C@@H]1COCCN1C2=NC(=NC(=C2)C3(CC3)[S@](=N)(=O)C)C4=C5C=CNC5=NC=C4 [AZD6738]; conditions: max 10 µM
Outline: as §1

AZD5991 = compound: Cc1c2c(nn1C)CSCc1cc(n(C)n1)CSc1cc(c3ccccc3c1)OCCCc1c(C(=O)O)n(C)c3c-2c(Cl)ccc13 [AZD5991]; conditions: max 1 µM
Outline: as §1

AZD7648 = compound: Cc1cc2ncnn2cc1Nc1ncc2c(n1)n(C1CCOCC1)c(=O)n2C [AZD7648]; conditions: max 10 µM
Outline: as §1

Taselisib = compound: Cc1nc(-c2cn3c(n2)-c2ccc(-c4cnn(C(C)(C)C(N)=O)c4)cc2OCC3)n(C(C)C)n1 [Taselisib]; conditions: max 10 µM
Outline: as §1

Selumetinib = compound: Cn1cnc2c(F)c(Nc3ccc(Br)cc3Cl)c(C(=O)NOCCO)cc21 [Selumetinib]; conditions: max 10 µM
Outline: as §1

SRA737 = compound: N#Cc1cnc(Nc2cc(NC[C@H]3CNCCO3)c(C(F)(F)F)cn2)cn1 [SRA737]; conditions: max 10 µM
Outline: as §1

MK-2206 = compound: NC1(c2ccc(-c3nc4ccn5c(=O)[nH]nc5c4cc3-c3ccccc3)cc2)CCC1 [MK-2206]; conditions: max 10 µM
Outline: as §1

Gemcitabine = compound: Nc1ccn([C@@H]2O[C@H](CO)[C@@H](O)C2(F)F)c(=O)n1 [Gemcitabine]; conditions: max 0.3 µM
Outline: as §1

[1] = compound: O=C(Nc1ccc2[nH]nc(-c3ccncc3)c2c1)[C@@H]1CCN(CC(=O)N2CCN(c3ccc(-c4ncccn4)cc3)CC2)C1; conditions: max 5 µM
Outline: as §1

Olaparib = compound: O=C(c1cc(Cc2n[nH]c(=O)c3ccccc23)ccc1F)N1CCN(C(=O)C2CC2)CC1 [Olaparib]; conditions: max 10 µM
Outline: as §1

5-Fluorouracil = compound: O=c1[nH]cc(F)c(=O)[nH]1 [5-Fluorouracil]; conditions: max 20 µM
Outline: as §1

| Cell Line | IC50, cell viability 72 h (Carboplatin) [nM] | IC50, cell viability 72 h (AZD5363) [nM] | IC50, cell viability 72 h (AZD1775; max 3 µM) [nM] | IC50, cell viability 72 h (Trametinib) [nM] | IC50, cell viability 72 h (Paclitaxel) [nM] | IC50, cell viability 72 h (Palbociclib) [nM] | IC50, cell viability 72 h (AZD1390) [nM] | IC50, cell viability 72 h (Venetoclax) [nM] | IC50, cell viability 72 h (Dasatinib) [nM] | IC50, cell viability 72 h (SG3199) [nM] | IC50, cell viability 72 h (AZD2811) [nM] | IC50, cell viability 72 h (SN-38) [nM] | IC50, cell viability 72 h (AZD0156; max 3 µM) [nM] | IC50, cell viability 72 h (AZD4320) [nM] | IC50, cell viability 72 h (Alisertib) [nM] | IC50, cell viability 72 h (Etoposide) [nM] | IC50, cell viability 72 h (Gefitinib) [nM] | IC50, cell viability 72 h (Prexasertib) [nM] | IC50, cell viability 72 h (Doxorubicin) [nM] | IC50, cell viability 72 h (AZD5153) [nM] | IC50, cell viability 72 h (Lapatinib) [nM] | IC50, cell viability 72 h (AZD8186) [nM] | IC50, cell viability 72 h (Crizotinib) [nM] | IC50, cell viability 72 h (Savolitinib) [nM] | IC50, cell viability 72 h (AZD6738) [nM] | IC50, cell viability 72 h (AZD5991) [nM] | IC50, cell viability 72 h (AZD7648) [nM] | IC50, cell viability 72 h (Taselisib) [nM] | IC50, cell viability 72 h (Selumetinib) [nM] | IC50, cell viability 72 h (SRA737) [nM] | IC50, cell viability 72 h (MK-2206) [nM] | IC50, cell viability 72 h (Gemcitabine) [nM] | IC50, cell viability 72 h [1] [nM] | IC50, cell viability 72 h (Olaparib) [nM] | IC50, cell viability 72 h (5-Fluorouracil) [nM] | IC50, cell viability 72 h (AZD1775; max 1 µM) [nM] | IC50, cell viability 72 h (AZD0156; max 1 µM) [nM] |
| --- | --- | --- | --- | --- | --- | --- | --- | --- | --- | --- | --- | --- | --- | --- | --- | --- | --- | --- | --- | --- | --- | --- | --- | --- | --- | --- | --- | --- | --- | --- | --- | --- | --- | --- | --- | --- | --- |
| K5 (Thyroid Gland Carcinoma) | > 10000 | > 10000 | > 3000 | 14.3 | 56.1 | > 10000 | > 300 | > 1000 | 604 | > 1 | > 1000 | 150 | > 3000 | > 1000 | 638 | > 10000 | > 10000 | 251 | 266 | 243 | > 10000 | > 10000 | 9780 | > 1000 | > 10000 | > 1000 | > 10000 | 558 | 2190 | > 10000 | > 10000 | > 300 | 3880 | > 10000 | > 20000 | – | – |
| NCI-H28 (Mesothelioma) | > 10000 | > 10000 | > 3000 | > 1000 | 825 | > 10000 | > 300 | > 1000 | 304 | > 1 | > 1000 | > 300 | > 3000 | > 1000 | > 10000 | > 10000 | > 10000 | 327 | > 1000 | > 1000 | > 10000 | > 10000 | > 10000 | > 1000 | > 10000 | > 1000 | > 10000 | > 10000 | > 10000 | > 10000 | > 10000 | 140 | > 5000 | > 10000 | > 20000 | – | – |
| HMV-II (Melanoma) | > 10000 | > 10000 | 1160 | 8.78 | 310 | > 10000 | > 300 | > 1000 | > 2000 | > 1 | > 1000 | 127 | > 3000 | > 1000 | > 10000 | > 10000 | > 10000 | > 1000 | 790 | 463 | > 10000 | > 10000 | > 10000 | > 1000 | > 10000 | > 1000 | > 10000 | 5060 | 606 | > 10000 | > 10000 | 139 | 502 | > 10000 | > 20000 | – | – |
| SU-DHL-6 (B-Cell Non-Hodgkin's Lymphoma) | > 10000 | 301 | 676 | > 1000 | 4.04 | 3570 | > 300 | 244 | 17.8 | > 1 | > 1000 | 8.04 | 2970 | 107 | 1090 | 1260 | > 10000 | > 1000 | 181 | 48.9 | 4980 | 228 | 2840 | > 1000 | > 10000 | 32.6 | > 10000 | 14.4 | > 10000 | > 10000 | 569 | 36.4 | > 5000 | > 10000 | > 20000 | – | – |
| MDA-MB-468 (Breast Carcinoma) | > 10000 | > 10000 | 1790 | 415 | 111 | > 10000 | > 300 | > 1000 | > 2000 | > 1 | > 1000 | 40 | > 3000 | 670 | 1520 | > 10000 | – | 618 | > 1000 | > 1000 | 9240 | 9070 | > 10000 | – | 6880 | > 1000 | > 10000 | > 10000 | > 10000 | > 10000 | 9170 | 263 | > 5000 | > 10000 | > 20000 | – | – |
| RH-18 (Rhabdomyosarcoma) | – | – | – | – | – | – | – | – | – | > 1 | > 1000 | > 300 | – | – | – | – | – | > 1000 | 909 | – | – | – | – | – | > 10000 | – | > 10000 | – | – | – | – | – | – | > 10000 | – | > 1000 | > 1000 |
